Measured values as given in publication PMC10052652 (Molecules, 2023).
Where two headings read alike, the source gives them in different places.

Legend:
[1] = target: T1, superoxide dismutase (SOD) (Homo sapiens, UniProt P00441); format: biochemical; details: at 100 µM
[2] = ABTS radical cation scavenging assay; details: for ABTS Assay %: at 100 µM
Method: ABTS (2,2′-azinobis-3-ethylbenzothiazoline-6-sulfonate) assay
The radical scavenging capacity of antioxidants for the ABTS radical cation was evaluated following this method: ABTS was prepared by adding 7 mM solution of ABTS at pH 7.4 (5 mM NaH2PO4, 5 mM Na2HPO4, and 154 mM NaCl) with 2.5 mM potassium persulfate. The mixture was stored at room temperature for 16 h in the dark before use and prepared […]. Once diluted with persulfate buffer, the absorbance of the mixture yielded an absorbance value of 0.70 ± 0.05 units at 734 nm. Then, 20 µL of each tested sample was mixed with fresh ABTS solution (180 µL), then the absorbance was measured 6 min after the initial mixing. Ascorbic acid was used as a standard. The capacity of free radical scavenging was expressed as a percentage of the inhibition values. The percentage of inhibition is calculated using the same expression employed in the DPPH assay.

[3] = target: T2, acetylcholinesterase (AChE) (Homo sapiens, UniProt P22303); assay: biochemical
Method: The enzymatic activity was assessed via a modified colorimetric Ellman′s method. First, 50 µL of Tris-HCl buffer (pH 8), 25µL of a buffer solution of the sample (50 µg/mL), and 25 µL of an acetylcholinesterase (AChE) enzyme solution containing 2.8 U/mL were mixed. A reaction was then initiated via the addition of 125 µL of 3 mM […]. After incubation for 15 min at 25 °C, 25 µL of a solution of iodide acetylthiocholine15 mM was added to a 96-well microplate. […] Inhibition (%) was calculated in the following way: Inhibition (%) = [(A control − A sample)/A control] × 100, where (A sample) is the absorbance of the molecule containing the reaction and (A control) is the absorbance of the reaction control. Tests were carried out in triplicate.

HCT116 cells = assay: Cytotoxic activity, MTT assay, HCT116; format: cell-based, human; details: Homo sapiens, HCT-116, 72 h, read-out: IC50 HCT116, MTT, 72 h
Method: (§1) The cancer cell lines used in this study were HCT116 (colorectal carcinoma), IGROV1 (ovarian cancer), OVCAR3 (ovarian cancer), and MCF7 (mammary gland/breast cancer). […] Cell lines were maintained in culture and were incubated at 37 °C in an incubator with 5% CO2 in a humidified atmosphere. All tests were established at 80% of confluence, and viability was estimated with a trypan blue exclusion assay.
(§2) The cytotoxic activities of molecules against cancer cell lines were evaluated using an MTT assay. The MTT colorimetric assay was performed using 96-well plates. Cells were seeded in a 96-well plate, at a concentration of 10 × 10^3 cells/well for HCT116 and 12 × 10^3 cells/well for MCF7, IGROV1, and OVAR. Adherent cells were dispatched and incubated at 37 °C overnight in a 5% CO2-enriched atmosphere. […] After that, the medium was removed, and cells were treated with 50 µL of 3-(4,5-dimethylthazolk-2-yl)-2,5-diphenyl tetrazolium bromide (MTT) solution (3 mg/mL in PBS) at 37 °C for 20 to 40 min. To dissolve the […], we added 80 µL of 100% DMSO. Optical density was measured at 540 nm. All tests were established in triplicate. […]

α-amylase = target: T3, α-amylase (Homo sapiens, UniProt P04746); assay: Anti-α-amylase activity (starch/DNS); details: for Anti α-Amylase %: at 100 µM
T3 sequence (P04746 16-511): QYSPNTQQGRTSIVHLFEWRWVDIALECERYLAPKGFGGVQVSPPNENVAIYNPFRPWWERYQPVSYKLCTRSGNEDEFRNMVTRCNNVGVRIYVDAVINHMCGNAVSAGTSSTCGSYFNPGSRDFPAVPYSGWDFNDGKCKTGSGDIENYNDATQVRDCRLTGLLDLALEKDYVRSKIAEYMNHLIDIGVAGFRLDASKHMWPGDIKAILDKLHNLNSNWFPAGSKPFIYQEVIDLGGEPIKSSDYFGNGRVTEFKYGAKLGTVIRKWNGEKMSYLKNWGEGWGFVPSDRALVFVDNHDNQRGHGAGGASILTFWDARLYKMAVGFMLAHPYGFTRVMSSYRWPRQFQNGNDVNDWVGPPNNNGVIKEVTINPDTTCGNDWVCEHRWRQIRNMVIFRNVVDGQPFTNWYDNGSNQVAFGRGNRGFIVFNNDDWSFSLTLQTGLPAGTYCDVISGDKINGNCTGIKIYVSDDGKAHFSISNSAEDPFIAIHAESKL
Method: The α-amylase inhibitory activity (%) value was defined as the percentage decrease in the maltose production rate over the control. […] After 15 min, this mixture was removed from the water bath and diluted with 900 µL of distilled water. The anti-α-amylase activity was determined by measuring the absorbance at 540 nm. Blank incubations were determined as the absorbance produced by samples where the enzyme was replaced with a buffer solution. […] The IC50 values were calculated from the mean values of the percentage of α--amylase inhibition data, determined in triplicate.

[4] = DPPH radical scavenging assay
Method: DPPH• (1-1-diphenyl 2-picryl hydrazyl) assay
This method is based on the spectrophotometric assay using the stable radical, DPPH•, as a reagent. First, 20 µL of each sample (4 mg/mL) was mixed with 180 µL of 0.1 mM DPPH• in methanol, in plates, after an incubation of 25 min in the dark. Absorbance was measured at 517 nm. Ascorbic acid was used as the reference compound. The radical-scavenging activities of molecules, expressed as a percentage inhibition of DPPH•, were calculated according to the following formula: Inhibition (%) = [(A control − A sample)/A control] × 100 where A is the absorbance determined at 517 nm. The absorbance of the solvent and DPPH• radical without the molecule was measured as the control.

SKOV-3 cells = assay: Cytotoxic activity, MTT assay, SKOV-3; format: cell-based, human
MCF7 cells = assay: Cytotoxic activity, MTT assay, MCF7; format: cell-based, human
Method: Optical density was measured at 540 nm. All tests were established in triplicate.

[5] = target: T1, superoxide dismutase (SOD); assay: biochemical; details: read-out: Anti SOD IC50
Method: Pyrogallol auto-oxidation due to oxygen in the air can be inhibited by an enzyme that is naturally present in the body: superoxide dismutase (SOD). Furthermore, variations in the pyrogallol auto-oxidation rate in the presence of SOD were evaluated. Tests were carried out in triplicate. The objective was to find an inhibitor of the auto-oxidation of pyrogallol in the presence of a SOD enzyme solution. Samples were tested at a concentration of 50 µg/mL, followed by incubation for 4 min at 25 °C. […] The self-oxidation of pyrogallol was evaluated in the absence of the enzyme. For this, 30 µL of pyrogallol was added to 120 µL of tris buffer (in place of the SOD) (pH 8.5), then followed by the same steps of incubating a positive control (without the molecule); this was performed in the presence of 5% of DMSO to evaluate the percentage of SOD inhibition activity on the auto-oxidation of pyrogallol.

[6] = target: T2, acetylcholinesterase (AChE); format: biochemical; details: at 100 µM
OVCAR-3 cells = assay: Cytotoxic activity, MTT assay, OVCAR-3; format: cell-based; details: Homo sapiens, OVCAR-3, 72 h, read-out: IC50 OVCAR-3
Method: as §1, §2

xanthine oxidase (XOD) [7] = target: T4, xanthine oxidase (XOD) (Homo sapiens, UniProt P47989); assay: biochemical; details: read-out: Anti XOD IC50
Method: Anti-xanthine oxidase activity was assayed spectrophotometrically under aerobic conditions. First, 50 µL (50 µg/mL) of samples were added to 60 µL of phosphate buffer (pH 7.5) and 30 µL of xanthine oxidase enzyme solution (0.01 units/mL in phosphate buffer; pH 7.5). After pre-incubation at 25 °C for 15 min, the reaction was initiated by the addition of 60 µL of xanthine substrate solution (prepared in the same buffer). The assay mixture was incubated at 25 °C for 5 min. […] The assay was performed in triplicate. […] Tests were carried out in triplicate.

xanthine oxidase (XOD) [8] = target: T4, xanthine oxidase (XOD); format: biochemical; details: at 100 µM
[9] = Homo sapiens, SK-OV-3, 72 h, read-out: IC50 SKOV-3, MTT, 72 h
[10] = read-out: IC50 SKOV-3, MTT, 72 h

T4 sequence (P47989 whole entry, species assumed): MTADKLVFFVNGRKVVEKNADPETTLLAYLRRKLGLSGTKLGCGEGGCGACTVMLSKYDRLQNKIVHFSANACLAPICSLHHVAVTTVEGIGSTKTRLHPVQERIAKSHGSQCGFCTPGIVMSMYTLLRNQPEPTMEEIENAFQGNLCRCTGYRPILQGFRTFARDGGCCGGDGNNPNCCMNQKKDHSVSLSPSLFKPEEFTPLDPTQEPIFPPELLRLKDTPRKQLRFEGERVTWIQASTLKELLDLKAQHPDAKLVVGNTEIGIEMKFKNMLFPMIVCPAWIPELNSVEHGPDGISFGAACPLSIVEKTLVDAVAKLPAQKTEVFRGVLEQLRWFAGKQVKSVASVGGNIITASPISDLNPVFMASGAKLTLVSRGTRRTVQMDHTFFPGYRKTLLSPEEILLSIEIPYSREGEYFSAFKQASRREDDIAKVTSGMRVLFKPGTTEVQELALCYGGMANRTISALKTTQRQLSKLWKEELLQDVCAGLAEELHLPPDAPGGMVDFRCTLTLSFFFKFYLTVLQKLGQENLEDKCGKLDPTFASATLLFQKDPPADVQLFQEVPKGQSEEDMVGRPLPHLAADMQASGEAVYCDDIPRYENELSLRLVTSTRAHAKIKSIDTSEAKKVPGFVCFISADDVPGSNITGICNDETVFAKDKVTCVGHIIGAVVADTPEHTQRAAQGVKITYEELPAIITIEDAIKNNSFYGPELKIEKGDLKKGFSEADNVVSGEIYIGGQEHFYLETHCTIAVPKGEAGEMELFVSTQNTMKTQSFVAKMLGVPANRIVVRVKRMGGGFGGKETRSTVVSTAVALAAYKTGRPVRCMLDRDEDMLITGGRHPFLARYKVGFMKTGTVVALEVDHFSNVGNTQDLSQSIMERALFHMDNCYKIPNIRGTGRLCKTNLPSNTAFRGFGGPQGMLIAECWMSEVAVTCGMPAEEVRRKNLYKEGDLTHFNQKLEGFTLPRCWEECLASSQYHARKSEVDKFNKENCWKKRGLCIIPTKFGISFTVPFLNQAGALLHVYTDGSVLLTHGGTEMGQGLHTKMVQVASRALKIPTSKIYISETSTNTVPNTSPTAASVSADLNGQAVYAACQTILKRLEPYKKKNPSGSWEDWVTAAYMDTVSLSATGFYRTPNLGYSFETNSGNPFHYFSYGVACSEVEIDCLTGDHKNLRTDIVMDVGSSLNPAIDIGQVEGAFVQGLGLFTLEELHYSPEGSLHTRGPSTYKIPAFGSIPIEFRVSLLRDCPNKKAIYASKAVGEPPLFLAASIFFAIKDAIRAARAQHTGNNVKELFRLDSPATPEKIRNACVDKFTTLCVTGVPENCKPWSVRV
T2 sequence (P22303 32-614, species assumed): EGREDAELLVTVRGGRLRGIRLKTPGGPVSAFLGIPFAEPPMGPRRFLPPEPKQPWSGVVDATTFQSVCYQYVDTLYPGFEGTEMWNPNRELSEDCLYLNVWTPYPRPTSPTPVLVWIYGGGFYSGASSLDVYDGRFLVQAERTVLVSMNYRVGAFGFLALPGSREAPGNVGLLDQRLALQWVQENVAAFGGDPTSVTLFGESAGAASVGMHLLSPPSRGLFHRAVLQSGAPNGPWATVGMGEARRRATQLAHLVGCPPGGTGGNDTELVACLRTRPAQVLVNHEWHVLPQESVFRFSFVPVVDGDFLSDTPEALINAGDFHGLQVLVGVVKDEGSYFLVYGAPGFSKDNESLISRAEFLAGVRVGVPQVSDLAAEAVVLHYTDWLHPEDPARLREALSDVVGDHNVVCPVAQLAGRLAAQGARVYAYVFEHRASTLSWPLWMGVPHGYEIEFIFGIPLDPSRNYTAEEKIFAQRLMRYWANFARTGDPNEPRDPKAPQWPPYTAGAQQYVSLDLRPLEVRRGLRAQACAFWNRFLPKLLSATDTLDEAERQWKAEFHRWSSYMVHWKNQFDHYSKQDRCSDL
T1 sequence (P00441 whole entry): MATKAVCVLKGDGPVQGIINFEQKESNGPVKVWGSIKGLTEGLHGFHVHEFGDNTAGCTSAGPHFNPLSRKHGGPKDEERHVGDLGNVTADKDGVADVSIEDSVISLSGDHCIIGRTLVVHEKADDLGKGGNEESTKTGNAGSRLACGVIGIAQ

| SMILES | Anti SOD % [1] [%] | IC50 [2] [µM] | ABTS Assay % [2] [%] | IC50 ([3]; read-out: Anti ACHE IC50) [µM] | IC50 (HCT116 cells) [µM] | IC50 (α-amylase) [µM] | Anti α-Amylase % (α-amylase) [%] | IC50 [4] [µM] | IC50 (SKOV-3 cells; [9]) [µM] | IC50 (MCF7 cells; Homo sapiens, MCF7, 72 h) [µM] | IC50 [5] [µM] | Anti ACHE % [6] [%] | IC50 (OVCAR-3 cells) [µM] | IC50 (xanthine oxidase (XOD) [7]) [µM] | Anti XOD % (xanthine oxidase (XOD) [8]) [%] | IC50 [3] [µM] | IC50 (SKOV-3 cells; [10]) [µM] | IC50 (MCF7 cells; 72 h) [µM] |
| --- | --- | --- | --- | --- | --- | --- | --- | --- | --- | --- | --- | --- | --- | --- | --- | --- | --- | --- |
| O=c1cc(-c2cccc(O)c2)oc2c1ccc1ccccc12 [Molecule M10, 3′-hydroxy-a-naphthoflavone] | 39.4 ± 1.9 | > 100 | 11.0 ± 1.0 | > 50 | > 50 | 2.3 ± 0.1 | 69.4 ± 1.6 | > 100 | > 50 | > 50 | > 100 | 54.7 ± 1.9 | > 50 | > 50 | 58.8 ± 0.3 |  |  |  |
| CC1OC(OCC2OC(Oc3c(-c4ccc(OCCO)c(OCCO)c4)oc4cc(OCCO)cc(O)c4c3=O)C(O)C(O)C2O)C(O)C(O)C1O (centres unmarked) [Molecule M6, trihydroxyethylrutin] | 53.7 ± 2.1 | 24.5 ± 0.1 |  |  | > 50 | > 100 | 49.4 ± 5.1 | > 100 | > 50 | > 50 | > 50 | 33.7 ± 3.7 | > 50 | > 100 |  | > 100 |  |  |
| Cc1ccc(-c2cc(=O)c3cc(O)ccc3o2)cc1 [Molecule M17, 6-hydroxy-4′-methylflavone] | 80.9 ± 0.2 | > 50 |  | > 50 | 40.4 ± 1.2 | > 100 |  | > 100 | 43.8 ± 0.9 | > 50 | > 50 | 50.8 ± 4.1 | > 50 | 0.8 ± 0.1 | 67.7 ± 2.1 |  |  |  |
| COc1cccc(-c2cc(=O)c3c(O)cccc3o2)c1 [Molecule M11, 5-hydroxy-3′-methoxyflavone] | 9.4 ± 3.1 | > 100 | 17.7 ± 0.7 | > 50 | > 50 | 8.3 ± 0.2 | 124.8 ± 15.3 | > 100 | > 100 | > 100 | > 100 | 52.6 ± 4.2 | > 50 | > 100 |  |  | > 50 |  |
| O=c1cc(-c2cccc(O)c2)oc2cccc(O)c12 [Molecule M14, 5,3′-dihydroxyflavone] | 5.7 ± 2.5 | > 100 | 16.9 ± 0.3 | > 50 |  | 6.7 ± 0.9 | 109.6 ± 1.7 | > 100 | > 100 | > 100 | > 100 | 55.0 ± 1.9 | > 50 | 2 ± 0.1 | 71.3 ± 4.7 |  | > 50 | > 50 |
| Cc1cccc(COc2cc(O)c3c(=O)cc(-c4ccccc4)oc3c2)c1 [Molecule M15, 5-hydroxy-7-((3-methylbenzyl)oxy)-2-phenyl-4h-chromen-4-one] | 26.5 ± 3.3 | > 100 | 25.6 ± 0.7 | > 50 | > 50 | > 100 | 46.2 ± 4.4 | > 100 | > 50 | > 50 | > 100 | 55.3 ± 2.7 | 45.6 ± 1.4 | > 100 |  |  |  |  |
